We go through twelve compounds from patent publication US12187720B2, “Compounds for treatment of cancer” (ONCTERNAL THERAPEUTICS, INC., priority 2010, dated 2025).

Counter-ions that a name gives are not always drawn. Like-named read-outs stand apart in the source and are kept apart here. Where only a bound is given, the exact number is not on record here.

One data set can be described thus: in vitro. The following applies: human, microsomes, pH 7.4.
Data set [1] in a line: Metabolic stability in monkey liver microsomes. The class given is in vitro ADME. The following applies: monkey, pH 7.4. On the technique in general: Liver microsomes are vesicles of endoplasmic reticulum, rich in cytochrome P450 enzymes.
The nature of data set [2]: Metabolic stability in dog liver microsomes. The following applies: dog, pH 7.4. The class given is in vitro ADME.
Data set [3] in a line: Metabolic stability in rat liver microsomes. The format is in vitro ADME. As to conditions: rat, liver microsomes, pH 7.4.
Data set [4] is described as follows: Metabolic stability in mouse liver microsomes. The following applies: mouse, liver microsomes. The format is in vitro ADME.
A short description of data set [5]: Metabolic stability in hamster liver microsomes. The class given is in vitro ADME. The following applies: pH 7.4, phase I pathway, read-out: T ½ (min), hamster liver microsomes.
Data set [6] can be described thus: Metabolic stability in guinea pig liver microsomes. The class given is in vitro ADME. As to conditions: pH 7.4, phase I pathway, read-out: T ½ (min), guinea pig liver microsomes.
Data set [7] is described as follows: Metabolic stability in rabbit liver microsomes. The format is in vitro ADME. The following applies: pH 7.4, phase I pathway, read-out: T ½ (min), rabbit liver microsomes.
In a further data set the test system is MES-SA/DX5. The data set can be described thus: SRB growth inhibition assay, P-gp over-expressing MES-SA/DX5 cells. The class given is cell-based. As to conditions: ratio of IC50 MES-SA/DX5 to MES-SA.
A further data set in a line: in vivo. As to conditions: male, ICR, mouse, plasma, 5 mg/kg; for Vd / clearance: iv.
Data set [8] can be described thus: Metabolic stability in human liver microsomes. The following applies: human, liver microsomes, pH 7.4.
In the next data set the test system is B16-F1. The data set can be described thus: SRB cytotoxicity assay, B16-F1 mouse melanoma cells. The class given is cell-based. The following applies: read-out: IC50 ± SEM B16-F1 (converted).
A further data set deals with A375. The data set can be described thus: SRB cytotoxicity assay, A375 human melanoma cells. The class given is cell-based. As to conditions: Homo sapiens, A-375, 48 h, read-out: IC50 ± SEM A375. On the technique in general: In SRB staining, fixed cells bind dye roughly in proportion to their protein.
A further data set relates to WM-164. The data set can be described thus: SRB cytotoxicity assay, WM-164 human melanoma cells. The class given is cell-based. The following applies: read-out: IC50 ± SEM WM164 (converted).
For a further data set, the system named is PC-3. The data set can be described thus: SRB cytotoxicity assay, PC-3 prostate cancer cells. The format is cell-based, human. The following applies: Homo sapiens, PC-3. The text has this:
(§1) Cells were stained with SRB solution.

The subject of another data set is DU 145. Briefly: SRB cytotoxicity assay, DU 145 prostate cancer cells. The class given is cell-based. The following applies: Homo sapiens.
Text: as §1

For the next data set, the system named is PPC-1. Briefly: SRB cytotoxicity assay, PPC-1 prostate cancer cells. The format is cell-based, human. As to conditions: Homo sapiens, PPC-1.
Text: as §1

The test system of the next data set is LNCaP. Briefly: SRB cytotoxicity assay, LNCaP prostate cancer cells. As to conditions: Homo sapiens, LNCaP. The class given is cell-based, human.
Text: as §1

The test system of data set [9] is A375 human melanoma xenograft. The data set can be described thus: In vivo efficacy, A375 human melanoma xenograft in mice. As to conditions: SHO mice. Here is the method: DTIC at 60 mg/kg was used as a positive control again.
PC-3 and A375 tumor xenograft studies.
In vivo antitumor activity [tumor growth inhibition (% T/C), tumor growth delay (T-C value), and tumor cell kill (total log cell kill)].
Background: In xenograft studies the graft and the host belong to different species.

A further data set deals with B16-F1 melanoma tumors. Briefly: In vivo efficacy, B16-F1 melanoma in C57/BL mice. On the set-up: species or system mouse. The following applies: 13 days, C57BL/6 mice.
Another data set relates to PC-3/TxR. Briefly: cells. As to conditions: Homo sapiens, PC3-TxR, read-out: inhibitory effects PC3/TXR.
Another data set has as its system DU145/TXR. Briefly: SRB growth inhibition, paclitaxel-resistant DU145/TXR cells. The format is cell-based. As to conditions: Homo sapiens, DU-145; Table 13A; read-out: inhibitory effects DU145/TXR.
Setting [10] is: monkey liver microsomes, Table 20, read-out: Half life in Monkey liver microsome.
Where [11] appears, read: dog liver microsomes, Table 20, read-out: Half life in Dog liver microsome.
Where [12] appears, read: Table 20, read-out: Half life in Rat liver microsome.
[13] abbreviates: pH 7.4, Table 20, read-out: Half life in Mouse liver microsome.
The mark [14] stands for this setting: liver microsomes, phase I pathway, read-out: T ½ (min), monkey liver microsomes.
Where [15] appears, read: liver microsomes, phase I pathway, read-out: T ½ (min), dog liver microsomes.
Setting [16] is: phase I pathway, read-out: T ½ (min), rat liver microsomes.
The mark [17] stands for this setting: pH 7.4, phase I pathway, read-out: T ½ (min), mouse liver microsomes.
Setting [18] is: Table 13A, read-out: inhibitory effects PC3.
[19] abbreviates: Table 13A, read-out: inhibitory effects DU145.
Setting [20] is: Table 13A, read-out: inhibitory effects PPC1.
[21] abbreviates: Table 13A, read-out: inhibitory effects LNCaP.

`COc1cc(C(=O)c2csc(-c3ccc(O)cc3)n2)cc(OC)c1OC` [2l, (2-(4-Hydroxyphenyl)thiazol-4-yl)(3,4,5-trimethoxyphenyl)methanone]: the half-life at 0.5 μM in the data set “in vitro” amounted to 20 min; in data set [1] (setting [10]) it was 8 min; in data set [2] (setting [11]) it was 30 min; in [3] (setting [12]), 49 min; in [4] (setting [13]), 11 min.

The AUC is concentration integrated over time. By Cmax is commonly meant the peak of the concentration-time curve. By bioavailability is commonly meant dose-corrected exposure relative to a reference, in per cent. Usually Vd stands for the apparent volume that relates the amount in the body to the concentration in plasma or blood. As a reminder, the clearance is the volume of plasma or blood freed of the substance per unit of time. Regarding `COc1cc(-c2nccc3ccc(-c4ccc5[nH]ccc5c4)cc23)cc(OC)c1OC` [6a], the half-life at 0.5 μM in data set [5] came out at 6 min; in data set [6], 15 min; in data set [7], 17 min; in [1] (setting [14]), 16 min; in [1] (setting [10]), 16 min; in [2] (setting [11]) it was 13 min. Moreover, the half-life at 0.5 μM in [2] (setting [15]) was determined as 13 min; in data set [8] it was 32 min; in data set [3] (setting [16]), 12 min; in data set [4] (setting [13]), 3.43 min; in [4] (setting [17]), 3.4 min. Also, the Resistance factor with MES-SA/DX5 was 1.5. Moreover, the results for the AUC in the data set “in vivo” (ip) and in “in vivo” (po) were 983 ng·h/mL and 83.3 ng·h/mL, respectively. Further, the figures for the Cmax in “in vivo” (ip) and in “in vivo” (po) were 678 ng/mL and 6.7 ng/mL, respectively. Also, the values for the bioavailability in the data set “in vivo” (ip) and in “in vivo” (po) were 60% and 5%, respectively. Further, the Vd in the data set “in vivo” turned out to be 2.3 L/kg. The compound also displayed a clearance in the data set “in vivo” of 51 mL/min/kg.

On to `c1cc2ccc(-c3ccc4[nH]ccc4c3)cc2c(-c2ccc3[nH]ccc3c2)n1` [6b, 1,7-Bis-(1H-indol-5-yl)-isoquinoline], for which the half-life at 0.5 μM in [5] worked out at 11 min; in data set [6], 15 min; in data set [7], 16 min; in data set [1] (setting [14]) it was 13 min; in data set [1] (setting [10]) it was 13 min; in data set [2] (setting [11]), 30 min. Besides, the half-life at 0.5 μM is 30 min in data set [2] (setting [15]); 40 min in data set [8]; 9 min in data set [3] (setting [16]); 10 min in data set [4] (setting [13]); 10 min in [4] (setting [17]). Also, in the data set with MES-SA/DX5, the Resistance factor was 1.4. In addition, the exposure (AUC) in “in vivo” (ip) was 3630 ng·h/mL; in “in vivo” (po), 117 ng·h/mL. Besides, the Cmax in “in vivo” (ip) amounted to 1500 ng/mL; in “in vivo” (po), 50 ng/mL. In addition, the bioavailability in the data set “in vivo” (ip) was found to be 60%; in “in vivo” (po), 2.1%. In “in vivo”, this compound yielded a Vd of 1.1 L/kg. Moreover, the clearance in the data set “in vivo” was 14 mL/min/kg.

For `O=C(c1cccc(F)c1)c1cn(S(=O)(=O)c2ccccc2)c(-c2ccccc2)n1` [11ag, (3-fluorophenyl)(2-phenyl-1-(phenylsulfonyl)-1H-imidazol-4-yl)methanone], the IC50 was > 10000 nM in the data set on B16-F1 (Mus musculus, B16-F1, 48 h, Table 13, 48 h); > 10000 nM in the data set with A375 (Table 13, 48 h); > 10000 nM with WM-164 (Homo sapiens, WM164, 48 h, Table 13, 48 h); > 10000 nM in the data set on PC-3 (Table 13, 96 h, read-out: IC50 ± SEM PC-3); > 10000 nM with DU 145 (Table 13, 96 h, read-out: IC50 ± SEM Du 145); > 10000 nM with PPC-1 (Table 13, 96 h, read-out: IC50 ± SEM PPC-1). Further, in the data set on LNCaP (Table 13, 96 h, read-out: IC50 ± SEM LNCaP), the IC50 is > 10000 nM.

As for `COc1cc(C(=O)c2cn(C)c(-c3ccc(C)cc3)n2)cc(OC)c1OC` [12dab, (1-methyl-2-(p-tolyl)-1H-imidazol-4-yl)(3,4,5-trimethoxyphenyl)methanone], the half-life at 0.5 μM in the data set “in vitro” is 21 min; in data set [2] (setting [11]), 46 min; in [3] (setting [12]), 12 min; in data set [4] (setting [13]), < 5 min.

In the case of `Cc1ccc(-c2nc(C(=O)c3ccc(F)cc3)c[nH]2)cc1` [12db-HCl, (4-fluorophenyl)(2-(p-tolyl)-1H-imidazol-4-yl)methanone hydrochloride], the IC50 in the data set on B16-F1 (Table 12, 48 h, hydrochloride) is 297 nM; in the data set on WM-164 (Table 12, 48 h, hydrochloride), 112 nM.

As for `COc1cc(-c2nc(C(=O)c3ccc(F)cc3)c[nH]2)cc(OC)c1OC` [12eb, (4-fluorophenyl)(2-(3,4,5-trimethoxyphenyl)-1H-imidazol-4-yl)methanone], the IC50 in the data set on B16-F1 (Mus musculus, B16-F1, 48 h, Table 12, 48 h) is > 10000 nM; in the data set on A375 (Table 12, 48 h), > 10000 nM; in the data set on WM-164 (Homo sapiens, WM164, 48 h, Table 12, 48 h) it was > 10000 nM.

`O=C(c1ccc(F)cc1)c1c[nH]c(-c2ccc(Cl)cc2)n1` [12fb, (2-(4-chlorophenyl)-1H-imidazol-4-yl)(4-fluorophenyl)methanone] yielded a half-life at 0.5 μM in “in vitro” of 37 min. Moreover, in data set [9] (25 mg/kg), the tolerability entry is “well tolerated”. The “tumor growth inhibition (TGI value)” value in the data set on B16-F1 melanoma tumors (45 mg/kg) worked out at 82%.

On to `COc1cc(C(=O)c2nc(-c3ccc(Cl)cc3)c[nH]2)cc(OC)c1OC` [70c, (4-(4-chlorophenyl)-1H-imidazol-2-yl)(3,4,5-trimethoxyphenyl)methanone], for which the IC50 with PC-3 (setting [18]) came out at 64 nM; with DU 145 (setting [19]), 125 nM; in the data set with PPC-1 (setting [20]), 51 nM; in the data set on LNCaP (setting [21]), 22 nM; with PC-3/TxR, 25 nM.

In the case of `COc1cc(C(=O)c2nc(-c3ccc(C(F)(F)F)cc3)c[nH]2)cc(OC)c1OC` [70e, (4-(4-(trifluoromethyl)phenyl)-1H-imidazol-2-yl)(3,4,5-trimethoxyphenyl)methanone], the IC50 with PC-3 (setting [18]) came to 93 nM; in the data set on DU145/TXR, 202 nM; in the data set on DU 145 (setting [19]), 210 nM; with PPC-1 (setting [20]), 75 nM; in the data set with LNCaP (setting [21]) it was 47 nM; with PC-3/TxR, 46 nM.

Consider `COc1ccc(-c2c[nH]c(C(=O)c3cc(OC)c(OC)c(OC)c3)n2)cc1` [70g, (4-(4-methoxyphenyl)-1H-imidazol-2-yl)(3,4,5-trimethoxyphenyl)methanone], for which the IC50 with PC-3 (setting [18]) turned out to be 61 nM; in the data set with DU145/TXR, 111 nM; in the data set with DU 145 (setting [19]), 210 nM; with PPC-1 (setting [20]), 54 nM; with PC-3/TxR it was 25 nM.

On to `CN(C)/N=N/c1[nH]cnc1C(N)=O` [DTIC, reference compound], for which the “tumor growth inhibition (TGI value)” value in [9] (60 mg/kg, 31 days) is listed as 52%; in the data set with B16-F1 melanoma tumors (60 mg/kg), 51%.
